According to patent US20220112187A1, “PYRAZOLOPYRIDINE AMINE COMPOUNDS FOR THE TREATMENT OF AUTOIMMUNE DISEASE” (Hoffmann-La Roche Inc., priority 2018, published 2022):

molecular target: T1, human TLR7 (Homo sapiens, UniProt Q9NYK1); assay: HEK293-Blue-hTLR-7 cells assay (SEAP reporter, R848 stimulation); assay type: cell-based; conditions: HEK293-Blue-hTLR7 cells, R848 ligand, 20 hrs incubation
T1 sequence (Q9NYK1 27-1049): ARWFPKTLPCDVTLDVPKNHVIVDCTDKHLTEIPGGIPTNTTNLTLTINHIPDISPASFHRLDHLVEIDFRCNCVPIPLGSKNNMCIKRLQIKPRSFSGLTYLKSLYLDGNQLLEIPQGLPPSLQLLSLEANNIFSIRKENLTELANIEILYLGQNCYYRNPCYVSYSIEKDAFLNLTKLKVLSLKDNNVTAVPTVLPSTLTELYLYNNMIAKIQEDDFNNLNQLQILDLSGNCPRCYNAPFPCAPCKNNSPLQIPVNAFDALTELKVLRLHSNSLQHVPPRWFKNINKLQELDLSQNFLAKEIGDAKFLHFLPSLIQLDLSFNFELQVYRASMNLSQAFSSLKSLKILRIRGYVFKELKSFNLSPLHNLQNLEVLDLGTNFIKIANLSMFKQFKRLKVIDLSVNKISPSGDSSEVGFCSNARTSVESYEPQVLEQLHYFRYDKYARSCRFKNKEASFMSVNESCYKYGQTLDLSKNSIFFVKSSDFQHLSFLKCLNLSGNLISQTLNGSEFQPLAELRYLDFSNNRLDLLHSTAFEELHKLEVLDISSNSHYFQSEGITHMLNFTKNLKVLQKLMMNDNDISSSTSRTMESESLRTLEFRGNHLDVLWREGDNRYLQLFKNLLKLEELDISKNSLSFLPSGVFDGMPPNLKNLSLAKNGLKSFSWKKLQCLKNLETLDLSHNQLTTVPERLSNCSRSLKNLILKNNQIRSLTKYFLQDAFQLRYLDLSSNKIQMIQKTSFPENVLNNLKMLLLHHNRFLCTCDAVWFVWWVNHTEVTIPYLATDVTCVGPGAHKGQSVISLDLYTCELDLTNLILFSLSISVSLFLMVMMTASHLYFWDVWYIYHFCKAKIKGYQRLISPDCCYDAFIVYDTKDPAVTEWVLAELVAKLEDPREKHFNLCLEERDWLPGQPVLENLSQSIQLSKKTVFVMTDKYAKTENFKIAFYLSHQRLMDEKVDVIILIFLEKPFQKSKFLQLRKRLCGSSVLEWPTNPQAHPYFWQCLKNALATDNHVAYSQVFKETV
Outline: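 Antagonist mode: HEK293-Blue-hTLR7 cells (250,000–450,000 cells/mL) incubated 20 h at 37° C. with serially diluted compound (1% DMSO) and R848 (20 uM stock). NF-κB/AP-1-driven SEAP in supernatant read with QUANTI-Blue after 2 h at 37° C., absorbance 620–655 nm.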

IC50 | Compound
390 nM | CC1CC(N)CCN1C[C@H]1CN(c2ccc(C#N)n3nccc23)C[C@@H](C)O1 (stereo partly drawn) [Example 51, 4-[(2S,6R)-2-[(4-amino-2-methyl-1-piperidyl)methyl]-6-methyl-morpholin-4-yl]pyrazolo[1,5-a]pyridine-7-carbonitrile]
460 nM | C[C@@H]1CN(c2ccc(C#N)n3nccc23)C[C@H](CN2CCCC3(CNC3)C2)O1 [Example 33, 4-[(2S,6R)-2-(2,6-diazaspiro[3.5]nonan-6-ylmethyl)-6-methyl-morpholin-4-yl]pyrazolo[1,5-a]pyridine-7-carbonitrile]
650 nM | C[C@@H]1CN(c2ccc(C#N)n3nccc23)C[C@H](CN2CC3(CCNC3)CC2=O)O1 (stereo partly drawn) [Example 20, 4-[(2R,6R)-2-methyl-6-[(3-oxo-2,7-diazaspiro[4.4]nonan-2-yl)methyl]morpholin-4-yl]pyrazolo[1,5-a]pyridine-7-carbonitrile]
